Reference: patent publication US8835427B2, “Fungicidal heterocyclic compounds” (priority 2010, dated 2014)
Marks after values point to notes of the source that are not given here.

Tests used:
Format in all cases: in vivo
[1] = system: Phytophthora infestans; conditions: 40 ppm test suspension (asterisk); tomato seedlings sprayed the day before inoculation with Phytophthora infestans; rating 100 = 100% disease control, 0 = no control relative to the controls
[2] = system: Plasmopara viticola; test: Test A: grape downy mildew, grape seedlings sprayed after inoculation, visual disease rating; conditions: 40 ppm test suspension (asterisk); grape seedlings sprayed 24 h after inoculation with Plasmopara viticola; rating 100 = 100% disease control, 0 = no control relative to the controls
[3] = system: Phytophthora infestans; conditions: 40 ppm test suspension (asterisk); tomato seedlings sprayed 17 h after inoculation with Phytophthora infestans; rating 100 = 100% disease control, 0 = no control relative to the controls

| SMILES | Test B rating (disease control, tomato late blight) [1] | Test A rating (disease control, grape downy mildew) [2] | Test C rating (disease control, tomato late blight) [3] |
| --- | --- | --- | --- |
| Cc1cc(C(F)(F)F)nn1CC(=O)N1CC2CN(c3nc(C4=NOC(c5c(F)cccc5F)C4)cs3)CC2C1 (stereo not drawn) [Compound 4, 1-[5-[4-[5-(2,6-difluorophenyl)-4,5-dihydro-3-isoxazolyl]-2-thiazolyl]hexahydropyrrolol[3,4-c]pyrrol-2(1H)-yl]-2-[5-methyl-3-(trifluoromethyl)-1H-pyrazol-1-yl]ethanone] | 100* % | 99* % | 99* % |
| Cc1cc(C(F)(F)F)nn1CC(=O)N1CCC(c2nc(C3=NOC(c4c(F)cccc4F)C3)cs2)CN1 (stereo not drawn) [Compound 1, 1-[4-[4-[5-(2,6-difluorophenyl)-4,5-dihydro-3-isoxazolyl]-2-thiazolyl]tetrahydro-1(2H)-pyridazinyl]-2-[5-methyl-3-(trifluoromethyl)-1H-pyrazol-1-yl]ethanone] | 100* % | 99* % | 99* % |
| CC(=O)N1CC(c2nc(C3=NOC(c4c(F)cccc4F)C3)cs2)CCN1C(=O)Cn1nc(C(F)(F)F)cc1C (stereo not drawn) [Compound 2, 1-[2-Acetyl-4-[4-[5-(2,6-difluorophenyl)-4,5-dihydro-3-isoxazolyl]-2-thiazolyl]tetrahydro-1(2H)-pyridazinyl]-2-[5-methyl-3-(trifluoromethyl)-1H-pyrazol-1-yl]ethanone] | 100* % | 89* % | 98* % |
| Cc1cc(C(F)(F)F)nn1CC(=O)N1CCC(c2nc(C3=NOC(c4c(F)cccc4F)C3)cs2)CO1 (stereo not drawn) [Compound 3] | 100* % | 100* % | 99* % |
